Earlier results in patent US5017369A, “Film-forming teat sealer for prevention of mastitis and use thereof” (priority 1989, dated 1991).

Conditions: gluconate salt dissolved in water

pH of water solutions: ~7.0
Compound: N=C(NCCCCCCNC(=N)NC(=N)Nc1ccc(Cl)cc1)NC(=N)Nc1ccc(Cl)cc1 [chlorhexidine gluconate, bis(p-chlorophenyl-diguanido)hexane]
